Tests used:
[1] = tested on: cancer cells; conditions: cited from earlier work
[2] = tested on: Hsp90β; conditions: cited from earlier work
[3] = tested on: PD-L1 and PD-L2; conditions: Hsp90 N-terminal inhibitors; cited from earlier work
[4] = tested on: patient-derived human melanoma cells; conditions: cited from earlier work
[5] = tested on: Hsp90β; assay: Cellular thermal shift assay; format: cell-based, murine; conditions: E0771 cells, 20 μM, 90 mn
[6] = tested on: progesterone receptor (PR) refolding by Hsp90 chaperone machine; assay: Progesterone receptor; format: biochemical, rabbit
[7] = tested on: cancer cells; conditions: cited from earlier work; remark: listed apart in the source
[8] = tested on: MEFs, MCF10A, E0771, Hs578T cells; assay: Cytotoxicity to normal versus cancer cells; format: cell-based, mouse and human; conditions: 24, 48, 72 h; EnnA 1.25-20 µM, 17AAG 0.15-5 µM; absorbance 490 nm
[9] = tested on: Hsp90β/HOP; assay: Co-immunoprecipitation of purified Hsp90β with HOP; format: binding, human; conditions: 40 μM EnnA or 5 μM 17-AAG, 5 mM ATP, 30 min 30°C
[10] = tested on: E0771 transcriptome; assay: Bulk RNA-seq of E0771 cells; format: cell-based, murine; conditions: ∼14%
[11] = tested on: Hsp90 client proteins, Hsp70, Hsp40, Hsp27; assay: Western blot of Hsp90 client and heat shock proteins in cells; format: cell-based, human and murine
[12] = tested on: cytokine/chemokine mRNA in E0771 cells; assay: RTqPCR of cytokines, chemokines and CX3CR1
[13] = tested on: Hsp90β/p23; assay: Co-immunoprecipitation of purified Hsp90β with p23; format: binding, human; conditions: 40 μM EnnA or 5 μM 17-AAG, 5 mM ATP, 30 min 30°C
[14] = tested on: MDA-MB-231 cells; assay: Flow cytometry of surface Hsp90, calreticulin, HMGB1, MDA-MB-231 cells; format: cell-based, human; conditions: 7.5 μM EnnA, 0.5 µM 17-AAG, 24h
[15] = tested on: 4T1 tumors; assay: Histology; format: in vivo, mouse
[16] = tested on: 4T1 tumor-infiltrating CD8+ T cells; assay: Immunofluorescence of 4T1 tumor-infiltrating immune cells; format: in vivo, mouse; conditions: EnnA 10 mg/kg/48 h, 17-AAG 25 mg/kg/48 h
[17] = tested on: E0771 tumors; assay: EnnA combined with CX3CR1 antagonist JMS-17-2, E0771 tumors; format: in vivo, mouse; conditions: JMS-17-2 10 mg/kg i.p. every 48 h alternating with EnnA 10 mg/kg
[18] = tested on: lung breast cancer metastasis; conditions: cited from earlier work
[19] = molecular target: Human Hsp90β, purified (human, UniProt P08238 1-724); assay: co-IP
Human Hsp90β, purified, sequence (P08238 whole entry): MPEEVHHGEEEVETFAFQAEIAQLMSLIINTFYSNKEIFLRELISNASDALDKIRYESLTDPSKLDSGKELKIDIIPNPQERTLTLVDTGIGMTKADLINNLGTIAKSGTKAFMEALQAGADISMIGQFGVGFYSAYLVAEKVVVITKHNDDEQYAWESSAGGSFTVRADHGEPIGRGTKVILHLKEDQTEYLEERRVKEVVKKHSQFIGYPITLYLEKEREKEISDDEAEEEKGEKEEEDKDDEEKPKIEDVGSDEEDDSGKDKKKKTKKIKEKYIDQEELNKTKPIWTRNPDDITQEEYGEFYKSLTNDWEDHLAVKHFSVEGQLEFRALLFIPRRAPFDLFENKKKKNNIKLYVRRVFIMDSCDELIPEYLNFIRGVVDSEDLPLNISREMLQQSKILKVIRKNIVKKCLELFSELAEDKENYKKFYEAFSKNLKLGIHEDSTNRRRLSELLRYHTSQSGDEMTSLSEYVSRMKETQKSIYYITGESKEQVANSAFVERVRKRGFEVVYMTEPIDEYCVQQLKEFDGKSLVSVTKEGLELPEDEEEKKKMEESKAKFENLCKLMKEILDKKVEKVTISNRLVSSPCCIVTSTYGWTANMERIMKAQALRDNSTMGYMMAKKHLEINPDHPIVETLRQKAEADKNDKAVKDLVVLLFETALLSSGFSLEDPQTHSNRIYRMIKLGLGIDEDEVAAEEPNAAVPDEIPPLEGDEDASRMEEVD

**Q.** What does the source list for `CC(C)=CCC[C@]1(C)C=Cc2c(O)c3c(c(CC=C(C)C)c2O1)O[C@]12C(=C[C@@H]4C[C@H]1C(C)(C)O[C@@]2(C/C=C(/C)C(=O)O)C4=O)C3=O` [GBA]?
**A.** mode of cancer cell death [1]: GBA-induced cancer cell paraptosis; binding to Hsp90β middle domain [2]: binds selectively to the middle domain of Hsp90β

**Q.** For `CC(C)c1cc(-c2n[nH]c(=O)n2-c2ccc3c(ccn3C)c2)c(O)cc1O` [ganetespib], which “transcription and cell-surface expression of PD-L1 and PD-L2” value [3] is on record?
**A.** significant decrease in the transcription and cancer cell-surface expression of immune checkpoint ligands PD-L1 and PD-L2

**Q.** What about the “T-cell-mediated killing of melanoma cells” value ([4]; autologous T cells in vitro) of the same molecule?
**A.** enhances T-cell-mediated killing of patient-derived human melanoma cells

**Q.** And the “effect on anti-CTLA4 and anti-PD-1 therapy” value ([4]; in vivo)?
**A.** potentiates responses to anti-CTLA4 and anti-PD-1 therapy in vivo

**Q.** Which “transcription and cell-surface expression of PD-L1 and PD-L2” value [3] does the source give for `COC1=C2C[C@@H](C)C[C@H](OC)[C@H](O)[C@@H](C)/C=C(\C)[C@H](OC(N)=O)[C@@H](OC)/C=C\C=C(/C)C(=O)NC(=CC1=O)C2=O` [geldanamycin] here?
**A.** significant decrease in the transcription and cancer cell-surface expression of immune checkpoint ligands PD-L1 and PD-L2

**Q.** For `CC1(C)CC(=O)c2c(C(F)(F)F)nn(-c3ccc(C(N)=O)c(N[C@H]4CC[C@H](OC(=O)CN)CC4)c3)c2C1` [SNX-5422], which “transcription and cell-surface expression of PD-L1 and PD-L2” value [3] is on record?
**A.** significant decrease in the transcription and cancer cell-surface expression of immune checkpoint ligands PD-L1 and PD-L2

**Q.** Which results are given for Enniatin B [AD96]?
**A.** CETSA stabilization of Hsp90 [5]: did not stabilize Hsp90; inhibition of PR refolding ([6]; RRL, Figures S1A–S1C, 10 µM drug in screen): did not inhibit the PR refolding

**Q.** With `CC(C)NCCCn1c(Sc2cc3c(cc2I)OCO3)nc2c(N)ncnc21` [PU-H71] as the molecule, how does the “transcription and cell-surface expression of PD-L1 and PD-L2” value [3] read?
**A.** significant decrease in the transcription and cancer cell-surface expression of immune checkpoint ligands PD-L1 and PD-L2

**Q.** Which “Hsp90 exposure at cell surface” value [7] does the source give for `CC(C)C[C@H](NC(=O)[C@H](Cc1ccccc1)NC(=O)c1cnccn1)B(O)O` [bortezomib] here?
**A.** expose Hsp90 at the cell surface

**Q.** What does the source list for `C=CCNC1=C2C[C@@H](C)C[C@H](OC)[C@H](O)[C@@H](C)/C=C(\C)[C@H](OC(N)=O)[C@@H](OC)/C=C\C=C(/C)C(=O)NC(=CC1=O)C2=O` [17-AAG, 17-N-allylamino-demethoxygeldanamycin]?
**A.** discrimination between cancer and non-transformed cells [8]: does not discriminate between cancer and non-transformed immortalized cells in cell culture; effect on Hsp90β binding to HOP [9]: unlike 17-AAG, EnnA does not affect HOP binding to purified Hsp90β; number of genes in common between EnnA and 17-AAG [10]: 34 genes; heat shock response (mRNA and protein of Hsp70, Hsp40, Hsp27) ([11]; 0.5 μM 17-AAG): upregulation of mRNA and protein levels of Hsp70, Hsp40, and Hsp27; Hsp90 client protein level ([11]; EnnA at EC50, 0.5 μM 17-AAG): induced Hsp90 client protein degradation; IL10 mRNA ([12]; E0771, RNA-seq and RTqPCR): decreased mRNA expression of anti-inflammatory cytokines such as IL10; pro-inflammatory cytokines IL12b, TNFα, IL1β mRNA ([12]; RTqPCR): limited impact on these inflammatory cytokines; effect on Hsp90β binding to p23 [13]: as with 17-AAG, EnnA disrupts Hsp90β binding to p23; accumulation of Hsp70-rich intermediate chaperoning complexes ([6]; SDS-PAGE/Coomassie, 1 μM 17-AAG, 10 μM EnnA): accumulation of the intermediate chaperoning complexes rich with Hsp70 as observed with 17-AAG; surface exposure of Hsp90, calreticulin, HMGB1 vs 17-AAG [14]: not induced by 17-AAG; tumor necrosis ([15]; 4T1, H&E, EnnA 10 mg/kg, 17-AAG 25 mg/kg): more necrotic than controls; immune-like cell infiltration of necrotic areas ([15]; 4T1 tumors): not as infiltrated as in the case of EnnA-treated animals; CD8+ T cell infiltration [16]: much less so in the 17-AAG-treated group

**Q.** With `CCNC(=O)c1noc(-c2cc(C(C)C)c(O)cc2O)c1-c1ccc(CN2CCOCC2)cc1` [Luminespib] as the molecule, how does the “transcription and cell-surface expression of PD-L1 and PD-L2” value [3] read?
**A.** significant decrease in the transcription and cancer cell-surface expression of immune checkpoint ligands PD-L1 and PD-L2

**Q.** Which “effect on EnnA antitumor efficacy” value [17] does the source give for `Cl.O=c1c2cccn2c2ccccc2n1CCCN1CCC(c2ccc(Cl)cc2)CC1` [JMS-17-2, 5-[3-[4-(4-Chlorophenyl)-1-piperidinyl]propyl]pyrrolo[1,2-a]quinoxalin-4(5H)-one hydrochloride] here?
**A.** significantly reduced the efficacy of EnnA

**Q.** And the “lung breast cancer metastasis” value [18]?
**A.** reduce lung breast cancer metastasis

B1: Human p23, purified (natural protein, UniProt Q15185 1-160, looked up)
chain: MQPASAKWYDRRDYVFIEFCVEDSKDVNVNFEKSKLTFSCLGGSDNFKHLNEIDLFHCIDPNDSKHKRTDRSILCCLRKGESGQSWPRLTKERAKLNWLSVDFNNWKDWEDDSDEDMSNFDRFSEMMNNMGGDEDVDLPEVDGADDDSQDSDDEKMPDLE
**Q.** Does B1 bind [19]?
**A.** binds

Source: article PMC10663837 (iScience, 2023)
